Results as given in PubChem BioAssay AID588780 (Sanford-Burnham Center for Chemical Genomics, 2011).
Activity calls are given as the source filed them.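 The calls were made as follows: active = compounds whose fitted half-maximal concentration in the cell-protection dose series is at or below a set limit; inactive = the rest.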

Each molecule was assayed on H9c2 cardiomyocytes, 2-deoxyglucose stress, ATP luminescence, 2 h (assay: H9c2 cell survival under 2-deoxyglucose stress – uHTS hits, dose response (AID 588780)).

| SMILES | IC50 |
| --- | --- |
| Cc1sc2nc(CSCC(=O)N(C)CC(=O)Nc3ccc(F)cc3)[nH]c(=O)c2c1C | > 79 µM (inactive) |
| c1ccc(-c2nc(-n3ccnc3)nc(-n3ccnc3)n2)cc1 | > 79 µM (inactive) |
| CCCN1C(=O)c2cc(C(=O)Nc3cccc(C(C)=O)c3)ccc2C1Nc1cccc(C(C)=O)c1 (stereo not drawn) | 11.4 µM |
| CCCCn1nc(C(=O)Oc2ccc3c(C)cc(=O)oc3c2)c2ccccc2c1=O | > 79 µM (inactive) |
| CCN(CC)S(=O)(=O)c1cccc(C(=O)N/N=C/c2ccccn2)c1 | > 79 µM (inactive) |
| Cc1nnc(SCC(=O)N/N=C/c2cn(-c3ccccc3)nc2-c2ccccc2)n1-c1ccccc1 | 14 µM |
| COc1ccc(N(Cc2cc3cc(OC)ccc3[nH]c2=O)C(=O)c2cccnc2)cc1 | > 79 µM (inactive) |
| Cc1cc(NC(=O)COC(=O)COc2ccc3c4c(c(=O)oc3c2)CCC4)no1 | > 79 µM (inactive) |
| CCOc1ccc(-n2c(C)c(C(C)=O)c3cc(OC(C)=O)ccc32)cc1 | > 79 µM (inactive) |
| Cc1ccc(OCC(=O)Nc2nc(-c3ccccn3)cs2)c(C)c1 | 16.4 µM |
| COc1cc(/C=N/NC(=O)c2cccnc2)ccc1OCC(=O)Nc1ccccc1Cl | > 79 µM (inactive) |
| COc1ccccc1OCCSc1nc2ccccc2c(=O)[nH]1 | > 79 µM (inactive) |
| O=C(Cn1nc(C(=O)O)c2ccccc2c1=O)c1c[nH]c2ccccc12 | 36.3 µM (inactive) |
| CC(OC(=O)Cc1n[nH]c(=O)c2ccccc12)C(=O)Nc1ccc(F)cc1 (stereo not drawn) | > 79 µM (inactive) |
| O=C(COC(=O)Cc1n[nH]c(=O)c2ccccc12)Nc1ncc(Cl)cc1Cl | > 79 µM (inactive) |
| CCCC(=O)Nc1cc(C)c2c(=O)oc3ccccc3c2n1 | > 79 µM (inactive) |
| c1ccc(-c2cn3c(n2)CCc2ccc4cccnc4c2-3)cc1 | > 79 µM (inactive) |
| O=C(CCc1nc2ccccc2c(=O)[nH]1)N1CCN(S(=O)(=O)c2cccc([N+](=O)[O-])c2)CC1 | > 79 µM (inactive) |
| Cc1ccccc1OCC(=O)NNC(=O)Cn1[nH]c(=O)c2ccccc2c1=O | > 79 µM (inactive) |
| CC(OC(=O)c1cc(-c2cccnc2)nc2ccccc12)C(=O)Nc1ccc2ccccc2c1 (stereo not drawn) | 11 µM |
| CCN(CC(=O)Nc1ccc(OC)cc1)C(=O)CCc1nc2ccccc2c(=O)[nH]1 | > 79 µM (inactive) |
| COc1ccc(NC(=O)N(C)C[C@H]2Oc3c(NC(=O)Nc4ccc(C(F)(F)F)cc4)cccc3C(=O)N([C@H](C)CO)C[C@@H]2C)cc1 | > 79 µM (inactive) |
| COc1ccccc1-c1cc2nc(-c3ccccc3)cc(N3CCN(C(=O)c4ccoc4)CC3)n2n1 | > 79 µM (inactive) |

| SMILES | IC50 |
| --- | --- |
| Cc1ccc(C(=O)Nc2nc(-c3ccccn3)cs2)s1 | > 79 µM (inactive) |
| CN(CC(=O)Nc1ccccc1Br)C(=O)CCc1nc2ccccc2c(=O)[nH]1 | > 79 µM (inactive) |
| Oc1ccc(Cl)cc1C=Nc1ccc(Br)cc1 | > 79 µM (inactive) |
| CCn1c(=O)c(C(=O)NC(C)c2ccccc2)c(O)c2ccccc21 (stereo not drawn) | > 79 µM (inactive) |
| O=C(OCc1cc(=O)n2ccsc2n1)c1ccc(O)cc1O | > 79 µM (inactive) |
| Cc1nc(NC(=O)c2cc3c(C)nn(-c4ccccc4)c3s2)sc1C(=O)Nc1ccccc1 | > 79 µM (inactive) |
| CCOc1ccc(NCc2cc3c(C(C)(C)C)nn(-c4ccccc4)c3[nH]c2=O)cc1 | > 79 µM (inactive) |
| C[C@@H]1ON(C)[C@H]2C[C@H]3c4[nH]c5ccc(-c6ccc7c(c6)OCO7)cc5c4CCN3C[C@@H]12 | 54.8 µM (inactive) |
| CC(=NO)C1CCC2C3CCC4CC(=NO)CCC4(C)C3C(C)(O)CC12C (stereo not drawn) | 14.9 µM |
| Nc1c(C(=O)N/N=C/c2cccnc2)oc2nc(-c3ccco3)cc(-c3ccco3)c12 | > 79 µM (inactive) |
| Cc1ccc2[nH]c(=O)c(CN(Cc3ccco3)S(=O)(=O)c3c(C)ccc4nsnc34)cc2c1 | 29.7 µM |
| COc1ccc(C(=O)Nc2cccc(NC(=O)c3ccc(OC)c(OC)c3)n2)cc1OC | > 79 µM (inactive) |
| NC(=O)c1oc2ccccc2c1NC(=O)c1ccco1 | 29.4 µM |
| CSc1nc(Cl)c(Br)c(N2CC2)n1 | > 79 µM (inactive) |
| CC(=O)NCc1ccc(-c2csc(NC(=O)CCc3nc4ccccc4c(=O)[nH]3)n2)s1 | > 79 µM (inactive) |
| O=c1[nH]c(CN2CCCC2)nc2sc3c(c12)CCC3 | > 79 µM (inactive) |
| CCOC(=O)C1=C(C)NC(C)=C(C(=O)OCC)C1C(=O)OCC(=O)NC(C)C | 19.7 µM |
| CC(C)(C)c1nn(-c2ccccc2)c2[nH]c(=O)c(CNCc3ccco3)cc12 | 40.3 µM (inactive) |
| COc1ccc(C(C(=O)NC2CCCC2)N(C(=O)c2snc(C(N)=O)c2N)c2cccc(O)c2)cc1 (stereo not drawn) | > 79 µM (inactive) |
| Cc1cc2[nH]c(=O)c3ccccc3n2n1 | > 79 µM (inactive) |
| COc1ccc(CCCNC(=O)C2(C)Cc3c(-c4ccc(NC(C)=O)cc4)ccnc3O2)cc1 (stereo not drawn) | > 79 µM (inactive) |
| O=C1OCCN1C(=O)[C@H]1[C@H](c2ccc([N+](=O)[O-])cc2)C(c2ccc(F)cc2)=NN1c1ccc(Br)cc1 | 6.03 µM |
| COc1ccccc1NC(=O)COc1ccc(C(=O)OCC(=O)NC(C)(C)C)cc1OC | 17.6 µM |

| SMILES | IC50 |
| --- | --- |
| COC(=O)c1cc2c(-c3ccccc3)cc3ccccn3c-2c1C(=O)OC | 13 µM |
| CCCN1CCN(C(=O)CCc2nnc3ccc(N4CCN(c5cccc(OC)c5)CC4)nn23)CC1 | > 79 µM (inactive) |
| O=C(c1cc2nc(-c3ccccc3)cc(-c3ccccc3)n2n1)N1CCN(C(=O)c2ccco2)CC1 | 9.32 µM |
| COc1cccc(/C=N/NC(=O)c2ccncc2)c1OC(=O)c1ccc(Br)cc1 | 24.7 µM |
| CCOc1cc(/C=C/c2nc3ccccc3c(=O)[nH]2)ccc1O | > 79 µM (inactive) |
| COc1ccc(Nc2nc(C(=O)N3CCc4cc(OC)c(OC)cc4C3)cs2)cc1 | > 79 µM (inactive) |
| CC1(NC(=O)CCc2nc3ccccc3c(=O)[nH]2)CCS(=O)(=O)C1 (stereo not drawn) | > 79 µM (inactive) |
| O=c1c2ccccc2nc2c3ccccc3c(NCCO)nn12 | 45.5 µM (inactive) |
| CC(C)(C)NC(=O)c1cc(NC(=O)c2cccs2)cc(NC(=O)c2cccs2)c1 | > 79 µM (inactive) |
| Nc1nc(-c2c[nH]c3ccccc23)cs1 | > 79 µM (inactive) |
| COc1ccc2[nH]c(=O)c(CN(CCc3ccccc3)Cc3nnnn3CC3CCCO3)cc2c1 (stereo not drawn) | > 79 µM (inactive) |
| NNC(=O)c1cc2ccccc2cc1O | > 79 µM (inactive) |
| CCOc1ccc(NC(=O)c2cc3c(=O)n(C)c4ccccc4c3n2C)cc1 | 11.5 µM |
| COc1cc(-c2cc(C(=O)Nc3ccccc3N3CCOCC3)c3ccccc3n2)cc(OC)c1OC | > 79 µM (inactive) |
| COc1ccc(-c2nn(-c3ccccc3)cc2C(=O)Nc2nccs2)cc1 | 12.1 µM |
| Brc1ccc(CSc2ccc3nnc(-c4cccnc4)n3n2)cc1 | > 79 µM (inactive) |
| O=C(Nc1cccc(NC(=O)c2ccc([N+](=O)[O-])o2)c1)c1ccco1 | > 79 µM (inactive) |
| NC(=O)c1nsc(C(=O)N(c2ccccc2F)C(C(=O)NCc2ccccc2)c2ccc(O)cc2)c1N (stereo not drawn) | > 79 µM (inactive) |
| COc1ccc(-c2csc(NC(=O)CCCc3nc4ccccc4c(=O)[nH]3)n2)cc1OC | 25.3 µM |
| COc1cccc(C(=O)Nc2cccc(-c3nnc(-c4ccco4)o3)c2)c1 | > 79 µM (inactive) |
| COc1cc(/C=C(\C#N)C(=O)Nc2ccccc2F)ccc1OCCN1CCOCC1 | 25.9 µM |
| COc1cccc(C(=O)Nc2cc(C)c3c(=O)oc4ccccc4c3n2)c1 | > 79 µM (inactive) |
